This passage reports IC50 results from BindingDB's records for doi:10.1016/s0960-894x(97)10148-2 (Smithkline Beecham Pharmaceuticals, 1999).

One test has as its target T1, Low affinity immunoglobulin epsilon Fc receptor (Homo sapiens, UniProt P06734).
T1 sequence (P06734 whole entry): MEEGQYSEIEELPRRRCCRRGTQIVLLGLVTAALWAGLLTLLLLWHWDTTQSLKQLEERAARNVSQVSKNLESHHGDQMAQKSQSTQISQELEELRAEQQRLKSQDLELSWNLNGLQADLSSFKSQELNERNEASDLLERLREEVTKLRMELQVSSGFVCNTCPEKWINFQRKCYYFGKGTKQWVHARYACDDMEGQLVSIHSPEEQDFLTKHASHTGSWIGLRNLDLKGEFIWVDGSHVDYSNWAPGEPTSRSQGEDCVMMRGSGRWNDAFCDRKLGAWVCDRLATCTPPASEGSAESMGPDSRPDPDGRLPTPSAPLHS
Description: (§1) Tested for inhibition against CD23 (IgE receptor) proteolysis in membranes derived from RPM18866 cells ( a human B-cell line); value ranges from 5-10.
By IC50 is commonly meant the concentration needed to halve the response being measured. Higher therefore signals a need for much substance. In turn, `O=C(C[C@H](C(=O)N[C@@H](Cc1ccccc1)C(=O)NCc1ccccc1)C1CCCCC1)NO` [(S)-N*1*-((S)-1-Benzylcarbamoyl-2-phenyl-ethyl)-2-cyclohexyl-N*4*-hydroxy-succinamide] gave a 50% inhibitory concentration (IC50) of 5 µM.

The target in the next test is T1, Low affinity immunoglobulin epsilon Fc receptor. The experiment in a line: ChEBML_41676.
Description: as §1
`CC(C)SC[C@H](CC(=O)NO)C(=O)N[C@@H](Cc1ccccc1)C(=O)NCc1ccccc1` [(R)-N*1*-((S)-1-Benzylcarbamoyl-2-phenyl-ethyl)-N*4*-hydroxy-2-isopropylsulfanylmethyl-succinamide] registered an IC50 of 8 µM.

In turn, `O=C(C[C@@H](Cc1ccc2ccccc2c1)C(=O)N[C@@H](Cc1ccccc1)C(=O)NCc1ccccc1)NO` [(R)-N*1*-((S)-1-Benzylcarbamoyl-2-phenyl-ethyl)-N*4*-hydroxy-2-naphthalen-2-ylmethyl-succinamide] yielded an IC50 of 1 µM.

Target in another test: not listed separately
Description: Tested for inhibition against CD23 (IgE receptor) proteolysis in membranes derived from RPM18866 cells (a human B-cell line).
The compound `NC(=O)CC[C@H](CC(=O)NO)C(=O)N[C@@H](Cc1ccccc1)C(=O)NCc1ccccc1` [(R)-3-((S)-1-Benzylcarbamoyl-2-phenyl-ethylcarbamoyl)-hexanedioic acid 6-amide 1-hydroxyamide] displayed a half-maximal inhibitory concentration (IC50) of more than 20 µM. In turn, `O=C(C[C@@H](O)C(=O)N[C@@H](Cc1ccccc1)C(=O)NCc1ccccc1)NO` [(R)-N*1*-((S)-1-Benzylcarbamoyl-2-phenyl-ethyl)-2,N*4*-dihydroxy-succinamide] gave an IC50 of more than 20 µM. Turning to `O=C(C[C@@H](CC1CCCCC1)C(=O)N[C@@H](Cc1ccccc1)C(=O)NCc1ccccc1)NO` [(R)-N*1*-((S)-1-Benzylcarbamoyl-2-phenyl-ethyl)-2-cyclohexylmethyl-N*4*-hydroxy-succinamide], the IC50 stood at 3.7 µM. In other words, the single-digit micromolar range. `O=C(C[C@@H](CC1CCCC1)C(=O)N[C@@H](Cc1ccccc1)C(=O)NCc1ccccc1)NO` [(R)-N*1*-((S)-1-Benzylcarbamoyl-2-phenyl-ethyl)-2-cyclopentylmethyl-N*4*-hydroxy-succinamide]: the concentration for half-maximal inhibition (IC50) was 0.2 µM. As to `CC(C)S[C@H](CC(=O)NO)C(=O)N[C@@H](Cc1ccccc1)C(=O)NCc1ccccc1` [(R)-N*1*-((S)-1-Benzylcarbamoyl-2-phenyl-ethyl)-N*4*-hydroxy-2-isopropylsulfanyl-succinamide], the IC50 came out at 8 µM. `C[C@H](CC(=O)NO)C(=O)N[C@@H](Cc1ccccc1)C(=O)NCc1ccccc1` [(R)-N*1*-((S)-1-Benzylcarbamoyl-2-phenyl-ethyl)-N*4*-hydroxy-2-methyl-succinamide] showed an IC50 of more than 20 µM. The compound `O=C(C[C@@H](CCc1ccccc1)C(=O)N[C@@H](Cc1ccccc1)C(=O)NCc1ccccc1)NO` [(R)-N*1*-((S)-1-Benzylcarbamoyl-2-phenyl-ethyl)-N*4*-hydroxy-2-phenethyl-succinamide] had a half-inhibitory concentration (IC50) of 5 µM.

In turn, `O=C(C[C@H](C(=O)N[C@@H](Cc1ccccc1)C(=O)NCc1ccccc1)c1ccc(-c2ccccc2)cc1)NO` [(S)-N*1*-((S)-1-Benzylcarbamoyl-2-phenyl-ethyl)-2-biphenyl-4-yl-N*4*-hydroxy-succinamide] registered an IC50 of more than 20 µM.

Consider `CN(C)C[C@H](CC(=O)NO)C(=O)N[C@@H](Cc1ccccc1)C(=O)NCc1ccccc1` [(S)-N*1*-((S)-1-Benzylcarbamoyl-2-phenyl-ethyl)-2-dimethylaminomethyl-N*4*-hydroxy-succinamide], for which the IC50 was more than 20 µM. Compound `CC(C)C[C@@H](CC(=O)NO)C(=O)N[C@@H](Cc1ccccc1)C(=O)NCc1ccccc1` [(S)-N*1*-((S)-1-Benzylcarbamoyl-2-phenyl-ethyl)-N*4*-hydroxy-2-isobutyl-succinamide] yielded an IC50 of more than 20 µM.

Take `O=C(C[C@H](C(=O)N[C@@H](Cc1ccccc1)C(=O)NCc1ccccc1)c1cccc2ccccc12)NO` [(S)-N*1*-((S)-1-Benzylcarbamoyl-2-phenyl-ethyl)-N*4*-hydroxy-2-naphthalen-1-yl-succinamide]: the half-inhibitory concentration (IC50) was more than 20 µM.

`O=C(C[C@H](C(=O)N[C@@H](Cc1ccccc1)C(=O)NCc1ccccc1)c1ccccc1)NO` [(S)-N*1*-((S)-1-Benzylcarbamoyl-2-phenyl-ethyl)-N*4*-hydroxy-2-phenyl-succinamide] yielded an IC50 of 1.6 µM. This lies in the single-digit micromolar range. In turn, `O=C(CCC(=O)N[C@@H](Cc1ccccc1)C(=O)NCc1ccccc1)NO` [N-((S)-1-Benzylcarbamoyl-2-phenyl-ethyl)-N'-hydroxy-succinamide] came in with a half-maximal inhibitory concentration (IC50) of more than 20 µM.
